Data reported in patent publication US20250325676A1, “CAMPTOTHECIN PRODRUG AND PHARMACEUTICAL COMPOSITION THEREOF” (TIANJIN HEMAY ONCOLOGY PHARMACEUTICAL CO., LTD, priority 2022, published 2025).
Read-outs that look alike come from different tables or passages of the source.

Columns and labels:
LoVo = experiment: In vitro inhibition of human tumor cells, LoVo, SRB method; assay type: cell-based
From the text: (§1) The cells were allowed to adhere overnight.
(§2) Trichloroacetic acid was removed. […] Excess SRB was removed.
(§3) The DMSO concentration was 0.1%.

BxPC-3 = experiment: In vitro inhibition of human tumor cells, BxPC-3, MTT method; assay type: cell-based
Experimental: as §1
(§4) Adherent cells: Culture medium was aspirated and 100 μl/wells of basal culture (generally refers to medium without fetal bovine serum (FBS) and other additives) containing 0.5 mg/ml MTT were added. The cells were cultured for 3 hours. MTT-containing basal medium was aspirated and 100 μl/wells of DMSO were added to dissolve formazan.
(§5) Unstably adherent cells: Unstably adherent cells were directly added to the MTT solution to achieve the concentration of 0.5 mg/ml and cultured for 3 hours. The ternary solution in an equal volume to the system was added to the system to dissolve the formazan.
as §3

SW620 = experiment: In vitro inhibition of human tumor cells, SW620, SRB method; assay type: cell-based
From the text: as §1, §2, §3

NCI-H460 = experiment: In vitro inhibition of human tumor cells, NCI-H460, MTT method; assay type: cell-based
Experimental: as §1, §4, §5, §3

HCT116 = experiment: In vitro inhibition of human tumor cells, HCT116, MTT method; assay type: cell-based
Experimental: as §1, §4, §5, §3

MDA-MB-468 = experiment: In vitro inhibition of human tumor cells, MDA-MB-468, SRB method
human colon cancer SW620 = conditions: 30 mg/kg i.v. qw × 2; SW620 model
NCI-N87 = experiment: In vitro inhibition of human tumor cells, NCI-N87, MTT method; assay type: cell-based
[1] = tested on: human colon cancer HCT116; experiment: Growth of human colon cancer HCT116 in allogeneic transplantation model; assay type: in vivo, nude mice
[2] = tested on: human small cell lung cancer NCI-H446; conditions: 20 mg/kg i.v. qw × 2; NCI-H446 model
[3] = tested on: human gastric cancer NCI-N87; experiment: Growth of human gastric cancer NCI-N87 in allogeneic transplantation model; assay type: in vivo, nude mice; conditions: 20 mg/kg i.v. qw × 2
Experimental: The tumor volume was measured 2 to 3 times per week. […] The subcutaneous tumors were peeled and weighed.
The calculation formula of the tumor volume: Volume=0.5×long diameter×short diameter×short diameter.

[4] = tested on: human colon cancer HCT116; conditions: 30 mg/kg i.v. qw × 2; HCT116 large tumor after irinotecan
From the text: When the tumor volume was more than 600 mm^3 and stable growth was maintained, the experimental animals were randomly divided by the remainder method and administered according to the size of the tumor volume. […] The subcutaneous tumors were stripped and weighed.
T was the subject and C is the model control.
Tumor volume growth was observed on a regular basis after completion of dosing.

[5] = tested on: human pancreatic cancer BxPC-3; experiment: Growth of human pancreatic cancer BxPC-3 in allogeneic transplantation model; assay type: in vivo, nude mice; conditions: BxPC-3 model
[6] = tested on: human pancreatic cancer BxPC-3; conditions: 30 mg/kg i.v. qw × 2; BxPC-3 large tumors after irinotecan
[7] = No βGU (direct effects of compound on cells)

Molecule | IC50 (LoVo; Adding βGU) | IC50 (LoVo; No βGU) | IC50 (BxPC-3; Adding βGU) | IC50 (BxPC-3; No βGU) | IC50 (SW620; Adding βGU) | IC50 (SW620; No βGU) | IC50 (NCI-H460; Adding βGU) | IC50 (NCI-H460; No βGU) | IC50 (HCT116; Adding βGU (β-glucuronidase)) | IC50 (HCT116; [7]) | IC50 (MDA-MB-468; Adding βGU) | IC50 (MDA-MB-468; No βGU) | T/C (%) (human colon cancer SW620) | Tumor inhibition rate (%) (human colon cancer SW620) | IC50 (NCI-N87; Adding βGU) | IC50 (NCI-N87; No βGU) | also measured
(2S,3S,4S,5R,6S)-6-(3-((1-(6-((4′-((E)-(8-amino-1-hydroxy-5,7-disulfonicnaphthalen-2-yl)diazenyl)-3,3′-dimethoxy-[1,1′-biphenyl]-4-yl)amino)-6-oxohexyl)-1H-1,2,3-triazol-4-yl)methoxy)-4-(((S)-4,11-diethyl-4-hydroxy-3,14-dioxy-3,4,12,14-tetrahydro-1H-pyrano[3′,4′:6,7]indolizino[1,7]quinolin-9-yl)oxy)methyl)phenoxy)-3,4,5-trihydroxytetrahydro-2H-pyran-2-carboxylate trisodium [Example 69] | 11 nM | 592 nM | 16 nM | 720 nM | 7.7 nM | 361 nM | 13 nM | 566 nM | 8.2 nM | 181 nM | 10 nM | 88 nM | 1.1% | 99.1% | 32 nM | 350 nM | –
(2S,3S,4S,5R,6S)-6-(3-((1-(8-((4′-((E)-(8-amino-1-hydroxy-5,7-disulfonicnaphthalen-2-yl)diazenyl)-[1,1′-biphenyl]-4-yl)amino)-8-oxooctyl)-1H-1,2,3-triazol-4-yl)methoxy)-4-((((S)-4,11-diethyl-4-hydroxy-3,14-dioxo-3,4,12,14-tetrahydro-1H-pyrano[3′,4′: 6,7]indolazino[1,2-b]quinolin-9-yl)oxy)methyl)phenoxy)-3,4,5-trihydroxytetrahydro-2H-pyran-2-carboxylate trisodium [Example 47] | 22 nM | 310 nM | 27 nM | 698 nM | 6.7 nM | 329 nM | 17 nM | 350 nM | 12 nM | 183 nM | 14 nM | 172 nM | 3.5% | 96.2% | 62 nM | 1480 nM | –
(2S,3S,4S,5R,6S)-6-(3-((1-(2-(2-(2-((4′-((E)-(8-amino-1-hydroxy-5,7-disulfonicnaphthalen-2-yl)diazenyl)-3,3′-dimethyl-[1,1′-biphenyl]-4-yl)amino)-2-oxoethoxy)ethoxy)ethyl)-1H-1,2,3-triazol-4-yl)methoxy)-4-(((S)-4,11-diethyl-4-hydroxy-3,14-dioxo-3,4,12,14-tetrahydro-1H-pyrano[3′,4′:6,7]indolazino[1,2-b]quinolin-9-yl)oxy)methyl)phe noxy)-3,4,5-trihydroxytetrahydro-2H-pyran-2-carboxylate trisodium [Example 54] | 9.3 nM | 275 nM | 8.8 nM | 638 nM | 15 nM | 549 nM | 11 nM | 360 nM | 13 nM | 259 nM | 6.8 nM | 217 nM | – | – | 38 nM | – | T/C (%) ([1]; 10 mg/kg i.v. qw × 2): 27.0%; Tumor inhibition rate (%) ([1]; 10 mg/kg i.v. qw × 2): 74.4%; inhibition rate at 2 μM (NCI-N87; No βGU): 2 μM about 46.1%; Relative volume RTV (X ± S.D.) [2]: 0.61 ± 0.48; T/C (%) [2]: 8.9%; Tumor inhibition rate (%) [2]: 90.5%; Tumor weight (g, X ± S.D.) [2]: 0.093 ± 0.080 g
(2S,3S,4S,5R,6S)-6-(3-((1-(2-((4′-((E)-(8-amino-1-hydroxy-5,7-disulfonicnaphthalen-2-yl)diazenyl)-3,3′-dimethyl-[1,1′-biphenyl]-4-yl)amino)-2-oxoethyl)-1H-1,2,3-triazol-4-yl)methoxy)-4-((((S)-4,11-diethyl-4-hydroxy-3,14-dioxy-3,4,12,14-tetrahydro-1H-pyrano[3′,4′:6,7]indolazino[1,2-b]quinolin-9-yl)oxy)methyl)phenoxy)-3,4,5-trihydroxytetrahydro-2H-pyran-2-carboxylate trisodium [Example 90] | – | – | – | – | – | – | – | – | – | – | 4.3 nM | 79 nM | – | – | 23 nM | 839 nM | T/C (%) ([1]; 10 mg/kg i.v. qw × 2): 23.7%; Tumor inhibition rate (%) ([1]; 10 mg/kg i.v. qw × 2): 81.7%; Relative volume RTV (X ± S.D.) [3]: 1.30 ± 0.36; T/C (%) [3]: 25.3%; Tumor inhibition rate (%) [3]: 83.5%; Tumor weight (g, X ± S.D.) [3]: 0.197 ± 0.085 g; Relative volume RTV (X ± S.D.) [4]: 0.89 ± 0.10; T/C (%) [4]: 23.9%; Tumor inhibition rate (%) [4]: 77.0%; Tumor weight (g, X ± S.D.) [4]: 0.627 ± 0.408 g
(2S,3S,4S,5R,6S)-6-(3-((1-(8-((4′-((E)-(8-amino-1-hydroxy-5,7-disulfonicnaphthalen-2-yl)diazenyl)-3,3′-dimethyl-[1,1′-biphenyl]-4-yl)amino)-8-oxooctyl)-1H-1,2,3-triazol-4-yl)methoxy)-4-((((S)-4,11-diethyl-4-hydroxy-3,14-dioxy-3,4,12,14-tetrahydro-1H-pyrano[3′,4′:6,7]indolizino[1,2-b]quinolin-9-yl)oxy)methyl)phenoxy)-3,4,5-trihydroxytetrahydro-2H-pyran-2-carboxylate trisodium [Example 40] | 23 nM | 302 nM | 41 nM | 658 nM | 6.9 nM | 244 nM | 15 nM | 943 nM | 6.1 nM | 218 nM | 6.9 nM | 217 nM | 2.9% | 97.2% | 30 nM | 1570 nM | –
CCc1c2c(nc3ccc(OC(=O)N4CCC(N5CCCCC5)CC4)cc13)-c1cc3c(c(=O)n1C2)COC(=O)[C@]3(O)CC [irinotecan, reference compound] | – | – | – | – | – | – | – | – | – | – | – | – | – | – | – | – | Tumor inhibition rate (%) ([1]; 100 mg/kg i.p. qw × 2): 71.6%; Final body weight change (%) ([1]; 100 mg/kg i.p. qw × 2, nude mouse): −10.5%; Final body weight change (%) ([5]; 100 mg/kg i.p. qw × 2, d 17 data): 6.4%
(2S,3S,4S,5R,6S)-6-(3-((1-(6-((4′-((E)-(8-amino-1-hydroxy-5,7-disulfonicnaphthalen-2-yl)diazenyl)-3,3′-dimethyl-[1,1′-biphenyl]-4-yl)amino)-6-oxohexyl)-1H-1,2,3-triazol-4-yl)methoxy)-4-(((S)-4-ethyl-4-hydroxy-3,14-dioxy-3,4,12,14-tetrahydro-1H-pyrano[3′,4′:6,7]indolazino[1,2-b]quinolin-9-yl)oxy)methyl)phenoxy)-3,4,5-trihydroxytetrahydro-2H-pyran-2-carboxylate trisodium [Example 24] | 18 nM | 764 nM | 19 nM | 1270 nM | 6.5 nM | 915 nM | 39 nM | 1720 nM | 14 nM | 339 nM | 11 nM | 171 nM | – | – | 61 nM | – | Relative volume RTV (X ± S.D.) [6]: 1.04 ± 0.07; T/C (%) [6]: 25.5%; Tumor inhibition rate (%) [6]: 75.3%; Tumor weight (g, X ± S.D.) [6]: 0.742 ± 0.267 g; Relative volume RTV (X ± S.D.) ([5]; 25 mg/kg i.v. qw × 2): 0.46 ± 0.12; T/C (%) ([5]; 25 mg/kg i.v. qw × 2): 9.6%; Tumor inhibition rate (%) ([5]; 25 mg/kg i.v. qw × 2): 92.0%; Tumor weight (g, X ± S.D.) ([5]; 25 mg/kg i.v. qw × 2): 0.134 ± 0.080 g; inhibition rate at 2 μM (NCI-N87; No βGU): 2 μM about 34.4%
